Measured values taken from patent publication US20240010726A1, “LFA-1 SIGNALLING MEDIATOR FOR USE IN CANCER THERAPY” (Universität Basel, priority 2020, published 2024).

Test system: MC38-OVA tumor cells
Test: Murine MC38-OVA tumor model, intratumoral MgCl2 vs NaCl in bilateral tumors
Format: in vivo, mice
Details: for Tumor growth: 3 mM MgCl2 intratumoral vs 3 mM NaCl in contralateral tumor, every third day
Description: FIG. 1: Intratumoral magnesium administration improves adaptive anti-tumor immunity. (a) Schematic of experimental design. B1/6 mice, either immunized with OVA or left untreated, were inoculated subcutaneously with MC38-OVA tumor cells bilaterally on the flanks. From day 7, injection of 3 mM NaCl solution was applied in left flank tumor, whereas 3 mM MgCl2 solution was injected in contralateral tumor. This regimen was repeated every third day for a total of 8 cycles. (b) Tumor growth curves in non-immunized mice (n=20) (left panel), and immunized mice (n=19) (right panel). (c) Tumor growth curves in ±CD8 depleted mice (n=6-17). Results were pooled from 2 independent experiments, with n=6-12 mice each. (d) Absolute numbers of tumor-infiltrating CD8^+ T cells. (e) Number of tumor-infiltrating CD8^+ T cells positive for Ki67 (left panel), Granzyme B (middle panel) and CD25 (right panel). (f) Cell number of tumor-infiltrating CD8^+ T cells expressing PD-1 and Tim3. (g) Schematic of experimental design. B1/6 mice, immunized with OVA, were inoculated subcutaneously with MC38-OVA tumor cells unilaterally on the flank. From day 5, intratumoral injections of either 3 mM NaCl or 3 mM MgCl2 were initiated, and repeated every third day for 8 cycles. Mice were additionally injected with 200 μg i.p. of isotype control (IgG2a) or anti-PD-1 Ab on day 9, 12, and 15. (h) Tumor growth curves (n=13-14) and (i) host survival (n=13-14). Results were pooled from 2 independent experiments (b, h, i). Unless stated otherwise, 6 to 12 weeks old female mice were used for experiments. In assays with pre-immunized mice, mice were immunized 19 days before tumor implantation by subcutaneous injection of 100 μg of OVA protein (Invivogen) and 50 μg of CpG-B ODN 1826 (Eurogentec), resuspended in 100 μL of PBS. For tumor implantation, mice were inoculated subcutaneously onto the flanks with 0.5×10^6 MC38-OVA cells, resuspended in 100 μL of PBS. In bilateral tumor experiments, mice received 50 μL intra-tumoral injections of either 3 mM NaCl or 3 mM MgCl2 (both diluted in ddH2O). Injections of NaCl solution was applied in left flank tumor, whereas MgCl2 solution was injected in contralateral tumor. I.t. injections were initiated once tumors were palpable, usually between day 5 and 10 after tumor injection. Injections were repeated every third day. Tumor size was quantified using a caliper and tumor volume was calculated using a rational ellipse formula (α2×β×π6, α being the shorter axis and β the longer axis). […] Tumor tissue was isolated from mice, weighed and minced using razor blades. Tissue was then digested using accutase (PAA), collagenase IV (Worthington), hyaluronidase (Sigma), and DNAse type IV (Sigma) for 60 min at 37° C. with constant shaking. The cell suspensions were filtered using a cell strainer (70 μm). Precision Counting beads (Biolegend) were added before staining to quantify the number of cells per gram of tumor. Single cell suspensions were blocked with rat anti-mouse FcγIII/II receptor (CD16/CD32) blocking antibodies (‘Fc-block’) and stained with live/dead cell-exclusion dye. Cells were then incubated with fluorophore-conjugated antibodies directed against cell surface antigens, washed and resuspended in FACS buffer (PBS+2% FBS). For intracellular/intranuclear antigens, cells stained with cell surface antibodies were fixed and permeabilized using Foxp3/transcription factor staining buffer (eBioscience) prior to incubation with antibodies directed against intracellular antigens. CD8 T cells are essential for antitumor immunity. To explore the role of Mg^2+ in the tumor microenvironment, and specifically its functional impact on T cell immunity, we examined the effect of intratumoral (i.t.) Mg^2+ administration in the MC38-OVA tumor model. Specifically, mice were either immunized against ovalbumin (OVA) or left untreated before subcutaneous implantation of OVA-expressing MC38 colorectal carcinoma cells bilaterally on the flanks. […]

[Mg+2] [Mg^2+, Magnesium]
Tumor-infiltrating CD8^+ T cells expressing PD-1 and Tim3 (Mg^2+ treated vs NaCl tumors): significantly more often (co-)expressed | Tumor-infiltrating CD8^+ T cells positive for CD25 (Mg^2+ treated vs NaCl tumors): more | Tumor-infiltrating CD8^+ T cells positive for Granzyme B (Mg^2+ treated vs NaCl tumors): more | Tumor-infiltrating CD8^+ T cells positive for Ki67 (Mg^2+ treated vs NaCl tumors): more | Number of tumor-infiltrating CD8^+ T cells (Mg^2+ treated vs NaCl tumors, flow cytometry): increased | Tumor growth (OVA pre-immunized mice): significantly reduced tumor growth | Tumor growth (non-immunized mice): comparable
